In patent US10344019B2 (priority 2010, dated 2019):
Read-outs that look alike come from different tables or passages of the source.

Legend:
Assay type in all cases: cell-based
[1] = test system: HCV 1a RLuc cells (dicistronic genotype 1a H77 replicon, RLuc reporter); test: microbe, parasite or virus in culture; conditions: Hepatitis C virus, read-out: 1a
In short: (§1)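 Renilla luciferase HCV replicon cells: dicistronic 1b Con1, 1a H77 or 2a JFH-1 replicons, or a JFH-1 chimera carrying J6 NS5A (M31 present). Compound in DMSO serial dilutions, 72 h incubation, then lysis and luciferase read. EC50 by non-linear regression.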

[2] = test system: HCV 4a Rluc cells (NS5A chimeric genotype 1b Con1 replicon with genotype 4a NS5A gene); test: microbe, parasite or virus in culture; conditions: Hepatitis C virus, read-out: 4a
In short: (§2)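 Replicon cells stably carrying the listed RLuc-encoding dicistronic replicons were seeded and treated with DMSO serial dilutions of compound (10 mM stocks) diluted into culture medium. After 72 h, cells were lysed and Renilla luciferase activity measured. EC50 was derived by non-linear regression.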

[3] = test system: HCV 1b RLuc cells (dicistronic genotype 1b Con1 replicon, RLuc reporter); test: microbe, parasite or virus in culture; conditions: Hepatitis C virus, read-out: 1b (nM)
In short: as §1

[4] = test system: HCV 3a RLuc cells (NS5A chimeric genotype 1b Con1 replicon with consensus genotype 3a NS5A gene); test: microbe, parasite or virus in culture; conditions: Hepatitis C virus, read-out: 3a, genotype 3a replicon
In short: as §2

[5] = test system: HCV 2a JFH-1 Rluc cells (dicistronic genotype 2a JFH-1 replicon, RLuc reporter); test: microbe, parasite or virus in culture; conditions: Hepatitis C virus, read-out: 2a JFH
In short: as §1

[6] = test system: HCV 2a Rluc cells (NS5A chimeric genotype 2a JFH-1 replicon with genotype 2a J6 strain NS5A gene, M31 present); test: HCV replicon reporter assay, genotype 2a J6 (M31 present); conditions: Hepatitis C virus, read-out: 2a J6
Procedure: Evaluation of cell-based anti-HCV activity: Antiviral potency (EC50) was determined using a Renilla luciferase (RLuc)-based HCV replicon reporter assay. To perform the assay for genotype 1 and 2a JFH-1, HCV 1b RLuc cells (harboring a dicistronic genotype 1b Con1 replicon that encodes a RLuc reporter), or HCV 1a RLuc cells (harboring a dicistronic genotype 1a H77 replicon that encodes a RLuc reporter), or HCV 2a JFH-1 Rluc cells (harboring a dicistronic genotype 2a JFH-1 replicon that encodes a RLuc reporter) were dispensed into 384-well plates. To perform the assay for genotype 2a (with M31 present) or 2b, HCV 2a Rluc or 2b Rluc cells (both with M31 present) harboring a dicistronic NS5A chimeric genotype 2a JFH-1 replicon that encodes a RLuc reporter and either genotype 2a J6 strain NS5A gene or genotype 2b MD2b-1 NS5A gene (based on Los Alamos HCV database isolates, both with M31 present) respectively, were dispensed into 384-well plates. To perform the assay for genotype 3 and 4, HCV 3a RLuc or 4a Rluc cells harboring a dicistronic NS5A chimeric genotype 1b Con1 replicon that encodes a RLuc reporter and either a consensus genotype 3a NS5A gene or genotype 4a NS5A gene (based on Los Alamos HCV database isolates) respectively, were dispensed into 384-well plates. Compounds were re-suspended in DMSO at a concentration of 10 mM and serially diluted in DMSO either manually or using an automated pipeting instrument. Serially diluted compounds were mixed with cell culture media and added to the seeded cells. […] 72 hours later, cells were lysed and Renilla luciferase activity quantified as recommended by the manufacturer (Promega-Madison, Wis.). Non-linear regression was performed to calculate EC50 values.

[7] = test system: HCV 2b Rluc cells (NS5A chimeric genotype 2a JFH-1 replicon with genotype 2b MD2b-1 NS5A gene, M31 present); test: microbe, parasite or virus in culture; conditions: Hepatitis C virus, read-out: 2b
In short: as §2

[8] = genotype 2a JFH-1 RLuc replicon

| Structure (SMILES) | EC50 ([1]; genotype 1a replicon) | EC50 [2] | EC50 [3] | EC50 [4] | EC50 ([5]; genotype 2a JFH-1 replicon) | EC50 [6] | EC50 ([1]; genotype 1a H77 RLuc replicon) | EC50 [7] | EC50 [5, 8] | EC50 [1] | EC50 [5] |
| --- | --- | --- | --- | --- | --- | --- | --- | --- | --- | --- | --- |
| COC(=O)N[C@H](C(=O)N1[C@@H]2CC[C@@H](C2)[C@H]1c1nc(Cl)c(-c2ccc(-c3ccc4c(ccc5nc([C@@H]6CCCN6C(=O)[C@H](NC(=O)OC)c6ccccc6)[nH]c54)c3)cc2)[nH]1)C(C)C [Example 401] | 0.001 to 0.999 nM | 0.001 to 0.99 nM | 0.015 nM | 0.001 to 0.99 nM | 0.001 to 0.999 nM | 1 to 44 nM | – | – | – | – | – |
| COC(=O)N[C@H](C(=O)N1CCC[C@H]1c1nc2ccc3cc(-c4ccc(-c5[nH]c([C@@H]6[C@H]7CC[C@H](C7)N6C(=O)[C@H](NC(=O)OC)c6ccccc6)nc5Cl)cc4)ccc3c2[nH]1)C(C)C [Example 402] | 0.001 to 0.999 nM | 0.001 to 0.99 nM | 0.015 nM | 0.001 to 0.99 nM | 0.001 to 0.999 nM | > 44 nM | – | – | – | – | – |
| COC(=O)N[C@H](C(=O)N1CCC[C@H]1c1nc(Cl)c(-c2ccc3c(c2)OCc2c-3ccc(-c3[nH]c([C@@H]4CCCN4C(=O)[C@@H](NC(=O)OC)C(C)C)nc3Cl)c2F)[nH]1)C(C)C [Example 404] | 0.001 to 0.999 nM | 0.001 to 0.99 nM | 0.008 nM | 0.001 to 0.99 nM | 0.001 to 0.999 nM | > 44 nM | – | – | – | – | – |
| COC(=O)N[C@H](C(=O)N1[C@@H]2CC[C@@H](C2)[C@H]1c1nc2ccc3cc(-c4ccc5c(ccc6nc([C@@H]7C[C@H]8C[C@H]8N7C(=O)[C@@H](NC(=O)OC)C(C)C)[nH]c65)c4)ccc3c2[nH]1)C(C)C [Example 405] | 0.001 to 0.999 nM | 0.001 to 0.99 nM | 0.009 nM | 0.001 to 0.99 nM | 0.001 to 0.999 nM | 1 to 44 nM | – | – | – | – | – |
| COC(=O)N[C@@H](C(=O)N1[C@@H]2CC[C@@H](C2)[C@H]1c1nc2ccc3cc(-c4ccc5c(ccc6nc([C@@H]7C[C@H]8C[C@H]8N7C(=O)[C@H](NC(=O)OC)c7ccccc7)[nH]c65)c4)ccc3c2[nH]1)c1ccccc1 [Example 406] | 0.001 to 0.999 nM | 0.001 to 0.99 nM | 0.017 nM | 0.001 to 0.99 nM | 0.001 to 0.999 nM | 0.001 to 0.999 nM | – | – | – | – | – |
| COC(=O)N[C@H](C(=O)N1CCC[C@H]1c1nnc(-c2ccc(-c3ccc4c(ccc5nc([C@@H]6CCCN6C(=O)[C@@H](NC(=O)OC)C(C)C)[nH]c54)c3)cc2)[nH]1)C(C)C [Example 407] | 0.001 to 0.999 nM | 0.001 to 0.99 nM | 0.048 nM | 1 to 4.99 nM | 0.001 to 0.999 nM | > 44 nM | – | – | – | – | – |
| COC(=O)N[C@H](C(=O)N1[C@@H](C)CC[C@H]1c1ncc(-c2ccc3c(c2)COc2cc4c(ccc5nc([C@@H]6CCCN6C(=O)[C@@H](NC(=O)OC)C6CCOCC6)[nH]c54)cc2-3)[nH]1)C(C)C [Example 602] | – | – | – | – | – | 0.001 to 0.999 nM | 0.001 to 0.999 nM | 0.001 to 0.999 nM | 0.001 to 0.999 nM | – | – |
| COC[C@H]1C[C@@H](c2ncc(-c3ccc4c(c3)COc3cc5c(ccc6nc([C@@H]7CCCN7C(=O)[C@@H](NC(=O)OC)C(C)C)[nH]c65)cc3-4)[nH]2)N(C(=O)[C@H](N)c2ccccc2)C1 [Example 607] | – | – | – | – | – | 0.001 to 0.999 nM | 0.001 to 0.999 nM | 0.001 to 0.999 nM | 0.001 to 0.999 nM | – | – |
| CC[C@@H](C)[C@H](NC(=O)OC)C(=O)N1C[C@@H](COC)C[C@H]1c1ncc(-c2ccc3c(c2)COc2cc4c(ccc5nc([C@@H]6CC[C@H](C)N6C(=O)[C@@H](NC(=O)OC)C(C)C)[nH]c54)cc2-3)[nH]1 [Example 628] | – | – | – | – | – | 0.001 to 0.999 nM | 0.001 to 0.999 nM | 0.001 to 0.999 nM | 0.001 to 0.999 nM | – | – |
| COC[C@H]1C[C@@H](c2nc3ccc4cc5c(cc4c3[nH]2)OCc2cc(-c3cnc([C@@H]4CCCN4C(=O)[C@H](NC(=O)OC)c4ccccc4)[nH]3)ccc2-5)N(C(=O)[C@@H](NC(=O)OC)[C@@H](C)OC)C1 [Example 635] | – | – | – | – | – | – | – | 0.001 to 0.999 nM | – | 0.001 to 0.999 nM | 0.001 to 0.999 nM |
